Assay results reported in publication PMC8460535, “Novel serotonin 5-HT2A receptor antagonists derived from 4-phenylcyclohexane-5-spiro-and 5-methyl-5-phenyl-hydantoin, for use as potential antiplatelet agents” (Pharmacological Reports, 2021).
Like-named read-outs stand apart in the source and are kept apart here. Marks after values point to notes of the source that are not given here.

What was measured:
[1] = tested on: whole rat blood aggregation induced by 5-HT and collagen; test: In vitro whole rat blood aggregation induced by 5-HT and sub-threshold collagen; assay type: cell-based; details: 5-HT 30 μM and collagen 0.8 μg/ml, read-out: b (5-HT + collagen) IC50
Method: (§1) In vitro aggregation assays were performed using freshly drawn whole rat blood with a Multiplate platelet function analyzer (Roche Diagnostic), the five-channel aggregometer based on measurements of electric impedance. Blood was collected from carotid arteries with a hirudin blood tube (Roche Diagnostic). 300 μl of hirudin anticoagulated blood was mixed with 300 μl prewarmed isotonic saline solution containing studied compound or vehicle (deionized water or DMSO 0.1%) and preincubated for 3 min at 37 °C with continuous stirring. Aggregation was induced by adding collagen (Hyphen-Biomed, France) (final concentration 1.6 µg/ml), 5-HT (30 µM) and sub-threshold concentration of collagen (0.8 µg/ml), 5-HT (6 µM) and sub-threshold concentration of ADP (ADP test, Roche Diagnostic), (1.6 µM). The aggregation process was recorded for 6 min. Ketanserin (ketanserin ( +) tartrate salt, Sigma-Aldrich, Germany), sarpogrelate (sarpogrelate hydrochloride, Sigma-Aldrich, Germany), and aspirin (Tocris, UK) were used as reference compounds. The Multiplate software analyzed the area under the curve (AUC) of the clotting process of each measurement and calculated the mean values. Each concentration of studied compounds was tested at least three times. The exact sample size (n value) is presented on Figs. 2–4. Concentration-inhibition curves were constructed and analyzed by non-linear curve fitting using GraphPad Prism 6.0 (GraphPad Software Inc., San Diego, CA, USA).

[2] = tested on: whole rat blood aggregation induced by 5-HT and ADP; test: In vitro whole rat blood aggregation induced by 5-HT and sub-threshold ADP; assay type: cell-based; details: 5-HT 6 μM and ADP 1.6 μM, na = not active, read-out: c (5-HT + ADP) IC50
Method: as §1

[3] = target: 5-HT2A receptor; details: cited from earlier work
[4] = target: T1, 5-HT2A receptors in rat aorta (Rattus norvegicus, UniProt P14842); details: already published; cited from earlier work
T1 construct: Isolated rat aorta was used to determine the antagonistic activity of studied compounds for 5HT2A-receptors; from tissue; host or cells: aortic rings of male Wistar rats, denuded of the endothelium
T1 sequence (P14842 whole entry): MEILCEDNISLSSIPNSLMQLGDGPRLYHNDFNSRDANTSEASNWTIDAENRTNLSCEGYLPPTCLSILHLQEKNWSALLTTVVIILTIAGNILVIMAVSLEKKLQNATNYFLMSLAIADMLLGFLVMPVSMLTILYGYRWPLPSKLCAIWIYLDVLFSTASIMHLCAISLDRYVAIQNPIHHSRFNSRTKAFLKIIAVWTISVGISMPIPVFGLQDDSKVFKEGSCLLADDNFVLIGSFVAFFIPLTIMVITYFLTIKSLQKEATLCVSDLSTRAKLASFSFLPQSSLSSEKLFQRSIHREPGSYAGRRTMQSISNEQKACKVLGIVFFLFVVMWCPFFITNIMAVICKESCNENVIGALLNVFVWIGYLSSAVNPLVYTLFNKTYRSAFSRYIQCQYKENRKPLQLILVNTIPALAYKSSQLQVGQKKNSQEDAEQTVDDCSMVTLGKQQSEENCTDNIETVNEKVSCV

[5] = target: serotonin 5-HT1A receptor; parameters: method as in Czopek et al., Acta Pol. Pharm. 73 (2016) 1545–1554; details: ref Czopek et al., Acta Pol. Pharm. 73 (2016) 1545–1554; read-out: Ki ± SEM [nM] 5-HT1A; cited from earlier work
[6] = target: dopamine D2 receptor; parameters: method as in Czopek et al., Acta Pol. Pharm. 73 (2016) 1545–1554; details: ref Czopek et al., Acta Pol. Pharm. 73 (2016) 1545–1554; read-out: Ki ± SEM [nM] D2; cited from earlier work
[7] = target: T2, human 5-HT2A receptor (Homo sapiens, UniProt P28223); test: 5-HT2A receptor radioligand binding assay ([3H]-ketanserin, CHO-K1 membranes); details: radioligand binding, compound 13 vs compound 3
T2 construct: purchased PerkinElmer; host or cells: CHO-K1 cells, stably transfected
T2 sequence (P28223 whole entry): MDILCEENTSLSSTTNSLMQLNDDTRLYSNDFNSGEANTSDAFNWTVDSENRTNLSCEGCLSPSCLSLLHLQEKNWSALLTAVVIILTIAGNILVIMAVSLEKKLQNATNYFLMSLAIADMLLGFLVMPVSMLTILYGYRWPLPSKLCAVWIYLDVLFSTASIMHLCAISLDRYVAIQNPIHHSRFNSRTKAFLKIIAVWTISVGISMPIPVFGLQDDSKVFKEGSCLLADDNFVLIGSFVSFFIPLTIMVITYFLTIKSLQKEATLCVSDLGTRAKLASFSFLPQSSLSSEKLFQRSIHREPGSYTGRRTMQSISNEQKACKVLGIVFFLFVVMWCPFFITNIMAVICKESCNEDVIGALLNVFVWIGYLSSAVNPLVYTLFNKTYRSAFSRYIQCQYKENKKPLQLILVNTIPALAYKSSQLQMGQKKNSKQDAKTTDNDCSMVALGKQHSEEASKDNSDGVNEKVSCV
Method: Stock solutions of tested compounds (10 mM) were prepared in DMSO. […] Each compound was tested in eight concentrations from 10^–5 to 10^–12 M (final concentration).
Radioligand binding was performed using membranes from CHO-K1 cells stably transfected with the human 5-HT2A receptor (PerkinElmer). All assays were carried out in duplicates. Data were fitted to a one-site curve-fitting equation with Prism 6 (GraphPad Software) and Ki values were estimated from the Cheng − Prusoff equation. The full description of this assay is in Supplementary material.
Mianserin (10 μM) was used to define nonspecific binding. […] The reaction was terminated by rapid filtration through GF/B filter mate presoaked with 0.5% polyethyleneimine for 30 minutes. Ten rapid washes with 200 µl 50 mM Tris buffer (4°C, pH 7.4) were performed using automated harvester system Harvester-96 MACH III FM (Tomtec). […] Radioactivity was counted in MicroBeta2 scintillation counter (PerkinElmer).

[8] = tested on: whole rat blood aggregation induced by collagen; test: In vitro whole rat blood aggregation induced by collagen (Multiplate); assay type: cell-based; details: collagen 1.6 μg/ml, na = not active
Method: as §1

[9] = target: T2, human 5-HT2A receptor; parameters: method as in PMID 29111111; details: cells expressing human 5-HT2A receptors; already published; cited from earlier work
[10] = tested on: whole rat blood aggregation induced by 5-HT and ADP; parameters: method as in PMID 29111111; details: 5-HT 6 μM and ADP 1.6 μM, already published, read-out: c (5-HT + ADP) IC50; cited from earlier work

Row | Structure (SMILES) | IC50 [1] [µM] | IC50 [2] [µM] | Ki ([3]; Table S1, ref Czopek et al., Acta Pol. Pharm. 73 (2016) 1545–1554, read-out: Ki ± SEM [nM] 5-HT2A) [nM] | Ki ([3]; serotonin 5-HT2A receptors, already published and re-printed for comparison, read-out: Ki [nM] ± SEM) [nM] | pKB ± SEM a [4] | Ki [5] [nM] | Ki [6] [nM] | fold higher affinity for 5-HT2A compared to compound 3 [7] | IC50 [8] [µM] | Ki ([3]; 5-HT2A receptors, previous studies, read-out: Ki (5-HT2A) of earlier hydantoin leads) [nM] | pKB ± SEM b [9] | IC50 [10] [µM]
1 | O=C1NC2(CCC(c3ccccc3)CC2)C(=O)N1CCCN1CCN(c2cccc(Cl)c2)CC1 (stereo not shown) [Compound 14, 3-(3-(4-(3-chlorophenyl)piperazin-1-yl)propyl)-8-phenyl-1,3-diazaspiro[4.5]decane-2,4-dione] | 75.8 ± 16.6 | 93.8 ± 9.4 | 56 ± 7 | 24 ± 2.5 | 7.110 ± 0.05^a | 5210 ± 268 | > 10000 | – | – | – | – | –
2 | O=C1NC2(CCC(c3ccccc3)CC2)C(=O)N1CCCN1CCN(c2ccccc2)CC1 (stereo not shown) [Compound 13, 8-phenyl-3-(3-(4-phenylpiperazin-1-yl)propyl)-1,3-diazaspiro[4.5]decane-2,4-dione] | 53.3 ± 4.6 | 9.9 ± 2.5 | – | – | 7.665 ± 0.03^a | 1670 ± 75 | > 10000 | over 25 fold | 27.3 ± 3.8 | 50 | – | –
3 | COc1cccc(CCc2ccccc2OCC(CN(C)C)OC(=O)CCC(=O)O)c1 (stereo not shown) [Sarpogrelate] | – | – | – | – | 8.220 ± 0.08^b | – | – | – | 66.8 ± 12.9 | – | 7.296 ± 0.04^b | 22.7 ± 2.1
